What is called MIC is the lowest concentration that inhibits growth of the organism. The IC50 is the concentration that inhibits the measured activity by half.

Values after ≈ are worked out from the molar mass of the structure shown.

For eight molecules, MIC and IC50 results are on record in ChEMBL document CHEMBL5335828, “Sacculatane Diterpenoids from the Liverwort Plagiochila nitens Collected in China” (J Nat Prod, 2024).

In the first assay the test system is Candida albicans. The assay is described as follows: Antifungal activity against Candida albicans DSY654 harboring CDR1-CDR2 double mutant assessed as inhibition of fungal growth incubated for 24 hrs by alamar blue assay. The format is functional.
Details: not given
(In general: Alamar Blue is a resazurin reagent that responds to reducing activity.)
On to `COC(=O)C1=CO[C@H]2OC(=O)[C@H]3[C@H]2[C@H]1[C@@H]1[C@H](C[C@H]3OC(C)=O)C1(C)C`, for which the MIC is 16 µg/mL (≈ 45.7 µM).

Tested on in another assay: not listed separately
Description: Cytotoxicity against mouse Hepa1c1c7 cells incubated for 24 hrs by MTT assay. The note with it: Hepa-1c1c7, 24 h. Format: functional, cell-based. On the technique in general: Formazan colour is commonly taken as a measure of viable cells.
For the molecule `C=C1CC[C@H]2[C@](C)(CC[C@H](OC(C)=O)C(C)(C)O)[C@@H](OC(C)=O)CC[C@]2(CO)[C@H]1CO`, the IC50 is over 50 µM.
`C=C1CC[C@H]2[C@](C)(CC[C@H](O)C(C)(C)O)CCC[C@]2(COC(C)=O)[C@H]1CO` displayed an IC50 of over 50 µM.
In turn, `C=C1CC[C@H]2[C@](C)(CC[C@H](O)C(C)(C)O)CCC[C@]2(CO)[C@H]1CO` had an IC50 of over 50 µM.
For `COC(=O)C1=CO[C@H]2OC(=O)[C@H]3[C@H]2[C@H]1[C@@H]1[C@H](C[C@H]3OC(C)=O)C1(C)C`, the IC50 was over 50 µM.
Consider `C=C1CC[C@H]2[C@](C)(CC[C@H](O)C(C)(C)O)[C@@H](OC(C)=O)CC[C@]2(CO)[C@H]1CO`, for which the IC50 was over 50 µM.
In turn, `C=C1C[C@H](O)[C@@H]2C3(CCC[C@@]2(C)CCC=C(C)C)[C@H](O)OC[C@@H]13` (some centres undefined) returned an IC50 of over 50 µM.
In turn, `CC(=O)O[C@H]1CC[C@@]23CO[C@](C)(CC[C@H]2[C@]1(C)CC[C@H](O)C(C)(C)O)[C@@H]3CO` displayed an IC50 of over 50 µM.
On the same count and under the same terms, in the case of `C=C1CC[C@H]2[C@](C)(CC[C@H](OC(C)=O)C(C)(C)O)CCC[C@]2(CO)[C@H]1CO` it was over 50 µM.
